System: MV-4-11 cells
Assay: Gene expression microarray analysis (Affymetrix PrimeView) and GSEA
Assay type: cell-based, human
Parameters: RFU PODN (11730768_x_at) / Fold change /veh PODN (11730768_x_at) / RFU LINC00158 (11744669_a_at) / Fold change /veh LINC00158 (11744669_a_at) / RFU DUSP10 (11751237_a_at) / Fold change /veh DUSP10 (11751237_a_at) / RFU ID3 (11757404_x_at) / Fold change /veh ID3 (11757404_x_at) / RFU PLEKHG5 (11737974_s_at) / Fold change /veh PLEKHG5 (11737974_s_at) / RFU LRRC4B (11730491_at) / Fold change /veh LRRC4B (11730491_at) / RFU GIMAP4 (11747438_a_at) / Fold change /veh GIMAP4 (11747438_a_at) / RFU KRT8 (11758183_x_at) / Fold change /veh KRT8 (11758183_x_at) / RFU CNN1 (11734310_a_at) / Fold change /veh CNN1 (11734310_a_at) / RFU VPS37D (11726825_at) / Fold change /veh VPS37D (11726825_at) / RFU C10orf10 (11716522_x_at) / Fold change /veh C10orf10 (11716522_x_at) / RFU KIR2DL2 /// KIR2DL4 /// KIR2DL5A /// KIR2DL5B /// KIR2DS1 /// KIR2DS2 /// KIR2DS3 /// KIR2DS4 /// KIR3DL3 /// KIR3DL3 /// KIR3DS1 (11738374_at) / Fold change /veh KIR2DL2 /// KIR2DL4 /// KIR2DL5A /// KIR2DL5B /// KIR2DS1 /// KIR2DS2 /// KIR2DS3 /// KIR2DS4 /// KIR3DL3 /// KIR3DL3 /// KIR3DS1 (11738374_at) / RFU C1QL1 (11718748_at) / Fold change /veh C1QL1 (11718748_at) / RFU TMPRSS4 (11747572_a_at) / Fold change /veh TMPRSS4 (11747572_a_at) / RFU HAMP (11756126_x_at) / Fold change /veh HAMP (11756126_x_at) / RFU RNFT2 (11725882_a_at) / Fold change /veh RNFT2 (11725882_a_at) / RFU NR4A2 (11747474_a_at) / Fold change /veh NR4A2 (11747474_a_at) / RFU ABCC12 (11746883_a_at) / Fold change /veh ABCC12 (11746883_a_at) / RFU TMEM136 (11760407_x_at) / Fold change /veh TMEM136 (11760407_x_at) / RFU CLDN22 /// WWC2 (11732394_at) / Fold change /veh CLDN22 /// WWC2 (11732394_at) / RFU HLA-DPB1 (11760878_x_at) / Fold change /veh HLA-DPB1 (11760878_x_at) / RFU SPINT1 (11716480_a_at) / Fold change /veh SPINT1 (11716480_a_at) / RFU GAP43 (11754022_s_at) / Fold change /veh GAP43 (11754022_s_at) / RFU A4GNT (11735810_at) / Fold change /veh A4GNT (11735810_at) / RFU PRB3 (11715151_x_at) / Fold change /veh PRB3 (11715151_x_at) / RFU TUBB4B (11761932_at) / Fold change /veh TUBB4B (11761932_at) / RFU CAPN14 (11732068_a_at) / Fold change /veh CAPN14 (11732068_a_at) / RFU TMCC2 (11721928_a_at) / Fold change /veh TMCC2 (11721928_a_at) / RFU IRGQ (11745062_a_at) / Fold change /veh IRGQ (11745062_a_at) / RFU FAM174B (11720279_a_at) / Fold change /veh FAM174B (11720279_a_at) / RFU TMPRSS4 (11748680_a_at) / Fold change /veh TMPRSS4 (11748680_a_at) / RFU FAM212B (11763350_a_at) / Fold change /veh FAM212B (11763350_a_at) / RFU PLEKHG5 (11743358_a_at) / Fold change /veh PLEKHG5 (11743358_a_at) / RFU ZSCAN30 (11745921_a_at) / Fold change /veh ZSCAN30 (11745921_a_at) / RFU CMKLR1 (11741424_a_at) / Fold change /veh CMKLR1 (11741424_a_at) / RFU LOC101060620 /// MAPK8IP1 (11723275_at) / Fold change /veh LOC101060620 /// MAPK8IP1 (11723275_at) / RFU SPTSSB (11747773_x_at) / Fold change /veh SPTSSB (11747773_x_at) / RFU PRSS12 (11739890_at) / Fold change /veh PRSS12 (11739890_at) / RFU BIN1 (11741810_x_at) / Fold change /veh BIN1 (11741810_x_at) / RFU WNT11 (11732464_a_at) / Fold change /veh WNT11 (11732464_a_at) / RFU C10orf10 (11716521_a_at) / Fold change /veh C10orf10 (11716521_a_at) / RFU C5orf56 (11738089_at) / Fold change /veh C5orf56 (11738089_at) / RFU CYB561 (11721691_x_at) / Fold change /veh CYB561 (11721691_x_at) / RFU ANKRD19P (11752326_a_at) / Fold change /veh ANKRD19P (11752326_a_at) / RFU OR2T12 /// OR2T33 /// OR2T8 (11738714_s_at) / Fold change /veh OR2T12 /// OR2T33 /// OR2T8 (11738714_s_at) / RFU VCAN (11748164_a_at) / Fold change /veh VCAN (11748164_a_at) / RFU JSRP1 (11732532_at) / Fold change /veh JSRP1 (11732532_at) / RFU KRTAP10-11 (11738290_x_at) / Fold change /veh KRTAP10-11 (11738290_x_at) / RFU MYO3A (11730013_a_at) / Fold change /veh MYO3A (11730013_a_at) / RFU EBF3 (11725865_a_at) / Fold change /veh EBF3 (11725865_a_at) / RFU CAMK2N1 (11719241_x_at) / Fold change /veh CAMK2N1 (11719241_x_at) / RFU C5orf56 (11738088_a_at) / Fold change /veh C5orf56 (11738088_a_at) / RFU OLFML3 (11715873_a_at) / Fold change /veh OLFML3 (11715873_a_at) / RFU LOC100653217 /// NTM (11731650_a_at) / Fold change /veh LOC100653217 /// NTM (11731650_a_at) / RFU MAPK11 (11762145_a_at) / Fold change /veh MAPK11 (11762145_a_at) / RFU FIZ1 (11724087_x_at) / Fold change /veh FIZ1 (11724087_x_at) / RFU OASL (11726364_x_at) / Fold change /veh OASL (11726364_x_at) / RFU SOX15 (11748057_x_at) / Fold change /veh SOX15 (11748057_x_at) / RFU CD79A (11719716_a_at) / Fold change /veh CD79A (11719716_a_at) / RFU HIST1H1D (11736915_at) / Fold change /veh HIST1H1D (11736915_at) / RFU CASKIN2 (11723855_a_at) / Fold change /veh CASKIN2 (11723855_a_at) / RFU LOC730098 (11760151_x_at) / Fold change /veh LOC730098 (11760151_x_at) / RFU OR4N2 (11742367_at) / Fold change /veh OR4N2 (11742367_at) / RFU PRRT2 (11749266_a_at) / Fold change /veh PRRT2 (11749266_a_at) / RFU SNX32 (11753110_a_at) / Fold change /veh SNX32 (11753110_a_at) / RFU CDHR5 (11726645_a_at) / Fold change /veh CDHR5 (11726645_a_at) / RFU RCAN1 (11760418_a_at) / Fold change /veh RCAN1 (11760418_a_at) / RFU FAM167A (11723789_a_at) / Fold change /veh FAM167A (11723789_a_at) / RFU FAM26E (11764081_at) / Fold change /veh FAM26E (11764081_at) / RFU ISYNA1 (11749810_s_at) / Fold change /veh ISYNA1 (11749810_s_at) / RFU ACY1 (11761880_at) / Fold change /veh ACY1 (11761880_at) / RFU 11764098_at / Fold change /veh 11764098_at / RFU SAMD14 (11745864_x_at) / Fold change /veh SAMD14 (11745864_x_at) / RFU NPB (11741838_a_at) / Fold change /veh NPB (11741838_a_at) / RFU TMPRSS6 (11731388_a_at) / Fold change /veh TMPRSS6 (11731388_a_at) / RFU KRTAP10-2 (11738614_at) / Fold change /veh KRTAP10-2 (11738614_at) / RFU ARHGAP8 /// PRR5-ARHGAP8 (11727945_x_at) / Fold change /veh ARHGAP8 /// PRR5-ARHGAP8 (11727945_x_at) / RFU KRTAP5-7 /// NADSYN1 (11734609_at) / Fold change /veh KRTAP5-7 /// NADSYN1 (11734609_at) / RFU RASL12 (11751679_a_at) / Fold change /veh RASL12 (11751679_a_at) / RFU CDKN2B (11736163_a_at) / Fold change /veh CDKN2B (11736163_a_at) / RFU PRF1 (11729649_at) / Fold change /veh PRF1 (11729649_at) / RFU, ZNF638 /// ZNF638-IT1 / Fold change vs veh, ZNF638 /// ZNF638-IT1 / RFU, PANK3 / Fold change vs veh, PANK3 / RFU, SH3YL1 / Fold change vs veh, SH3YL1 / RFU, ZEB2 / Fold change vs veh, ZEB2 / RFU, NRIP1 / Fold change vs veh, NRIP1 / RFU, PTTG1IP / Fold change vs veh, PTTG1IP / RFU, CAPN2 / Fold change vs veh, CAPN2 / RFU, MED14 / Fold change vs veh, MED14 / RFU, SNORA58 / Fold change vs veh, SNORA58 / RFU, C1orf63 / Fold change vs veh, C1orf63 / RFU, LRRFIP1 / Fold change vs veh, LRRFIP1 / RFU, NDUFAF7 / Fold change vs veh, NDUFAF7 / RFU, SLC12A2 / Fold change vs veh, SLC12A2 / RFU, IBTK / Fold change vs veh, IBTK / RFU, ESF1 / Fold change vs veh, ESF1 / Fold change vs veh, TMEM50B / RFU, TAOK1 / Fold change vs veh, TAOK1 / RFU, ACBD3 / Fold change vs veh, ACBD3 / RFU, TMA16 / Fold change vs veh, TMA16 / RFU, RWDD3 / Fold change vs veh, RWDD3 / RFU, BCAT1 / Fold change vs veh, BCAT1 / RFU, EDEM3 / Fold change vs veh, EDEM3 / RFU, TMEM33 / Fold change vs veh, TMEM33 / RFU, WDR75 / Fold change vs veh, WDR75 / RFU, AHCTF1 / Fold change vs veh, AHCTF1 / RFU, TFRC / Fold change vs veh, TFRC / RFU, ZDHHC17 / Fold change vs veh, ZDHHC17 / RFU, NOM1 / Fold change vs veh, NOM1 / RFU, ARL8B / Fold change vs veh, ARL8B / RFU, ZBTB11 / Fold change vs veh, ZBTB11 / RFU, TAMM41 / Fold change vs veh, TAMM41 / RFU, KIAA1704 /// LOC100996395 / Fold change vs veh, KIAA1704 /// LOC100996395 / RFU, ING1 / Fold change vs veh, ING1 / RFU, TRMT61B / Fold change vs veh, TRMT61B / RFU, FUBP3 / Fold change vs veh, FUBP3 / RFU, TP53 / Fold change vs veh, TP53 / RFU, TNKS2 / Fold change vs veh, TNKS2 / RFU, ZFP14 / Fold change vs veh, ZFP14 / RFU, ACTR2 / Fold change vs veh, ACTR2 / RFU, PPP3R1 / Fold change vs veh, PPP3R1 / RFU, PIK3R1 / Fold change vs veh, PIK3R1 / RFU, HNRNPA1 / Fold change vs veh, HNRNPA1 / RFU, RNF170 / Fold change vs veh, RNF170 / RFU, ZNF28 / Fold change vs veh, ZNF28 / RFU, RNGTT / Fold change vs veh, RNGTT / RFU, OGT / Fold change vs veh, OGT / RFU, BRD1 / Fold change vs veh, BRD1 / RFU, MARS / Fold change vs veh, MARS / RFU, ZNF655 / Fold change vs veh, ZNF655 / RFU, FAHD1 / Fold change vs veh, FAHD1 / RFU, BDP1 / Fold change vs veh, BDP1 / RFU, LRRCC1 / Fold change vs veh, LRRCC1 / RFU, ARID1A / Fold change vs veh, ARID1A / RFU, ZNF146 / Fold change vs veh, ZNF146 / RFU, ZNF330 / Fold change vs veh, ZNF330 / RFU, GPN3 / Fold change vs veh, GPN3 / RFU, C9orf123 / Fold change vs veh, C9orf123 / RFU, N4BP2L2 / Fold change vs veh, N4BP2L2 / RFU, ARFIP1 / Fold change vs veh, ARFIP1 / RFU, FAM179B / Fold change vs veh, FAM179B / RFU, BCL10 / Fold change vs veh, BCL10 / RFU, UHRF1BP1L / Fold change vs veh, UHRF1BP1L / RFU, BET1 / Fold change vs veh, BET1 / RFU, CNOT2 / Fold change vs veh, CNOT2 / RFU, ZNF268 / Fold change vs veh, ZNF268 / Fold change vs veh, ZNF507 / RFU, DGCR2 / Fold change vs veh, DGCR2 / RFU, WDSUB1 / Fold change vs veh, WDSUB1 / Fold change vs veh, HSP90B1 /// MIR3652 / RFU, ADSS / Fold change vs veh, ADSS / RFU, GK / Fold change vs veh, GK / RFU, ZNF148 / Fold change vs veh, ZNF148 / RFU, TAF9 / Fold change vs veh, TAF9 / RFU, SLC1A5 / Fold change vs veh, SLC1A5 / RFU, SLMO2 / Fold change vs veh, SLMO2 / RFU, ABCC4 / Fold change vs veh, ABCC4 / RFU, LOC101060439 /// RAP1B / Fold change vs veh, LOC101060439 /// RAP1B / RFU, RFX7 / Fold change vs veh, RFX7 / RFU, GTPBP10 / Fold change vs veh, GTPBP10 / RFU, CNEP1R1 / Fold change vs veh, CNEP1R1 / RFU, BIVM-ERCC5 /// ERCC5 / Fold change vs veh, BIVM-ERCC5 /// ERCC5 / RFU, ILF3 / Fold change vs veh, ILF3 / RFU 11762660_at / Fold change /veh 11762660_at / RFU VCAN (11757783_s_at) / Fold change /veh VCAN (11757783_s_at) / RFU DDX43 (11728927_at) / Fold change /veh DDX43 (11728927_at) / RFU KRT8 (11758188_x_at) / Fold change /veh KRT8 (11758188_x_at) / RFU NKD1 (11759106_at) / Fold change /veh NKD1 (11759106_at) / RFU SRD5A1 (11742802_a_at) / Fold change /veh SRD5A1 (11742802_a_at) / RFU TPSAB1 /// TPSB2 (11721975_s_at) / Fold change /veh TPSAB1 /// TPSB2 (11721975_s_at) / RFU GSTM3 (11746129_a_at) / Fold change /veh GSTM3 (11746129_a_at) / RFU IL23R (11737362_x_at) / Fold change /veh IL23R (11737362_x_at) / RFU TMEM51 (11727254_a_at) / Fold change /veh TMEM51 (11727254_a_at) / RFU PIWIL2 (11732686_x_at) / Fold change /veh PIWIL2 (11732686_x_at) / RFU ORM1 (11744905_x_at) / Fold change /veh ORM1 (11744905_x_at) / RFU CCDC152 (11743942_at) / Fold change /veh CCDC152 (11743942_at) / RFU ECM1 (11717891_a_at) / Fold change /veh ECM1 (11717891_a_at) / RFU IL23R (11748794_a_at) / Fold change /veh IL23R (11748794_a_at) / RFU TNFAIP8L3 (11732012_x_at) / Fold change /veh TNFAIP8L3 (11732012_x_at) / RFU MBOAT4 (11741988_at) / Fold change /veh MBOAT4 (11741988_at) / RFU 11764193_at / Fold change /veh 11764193_at / RFU TMEM53 (11763286_at) / Fold change /veh TMEM53 (11763286_at) / RFU MAGEB2 (11727129_at) / Fold change /veh MAGEB2 (11727129_at) / RFU TMEM200A (11744735_a_at) / Fold change /veh TMEM200A (11744735_a_at) / RFU CCDC152 (11751479_a_at) / Fold change /veh CCDC152 (11751479_a_at) / RFU FAM211A (11726209_a_at) / Fold change /veh FAM211A (11726209_a_at) / RFU RGS16 (11746705_a_at) / Fold change /veh RGS16 (11746705_a_at) / RFU VCAN (11755009_s_at) / Fold change /veh VCAN (11755009_s_at) / RFU RHOB (11743442_s_at) / Fold change /veh RHOB (11743442_s_at) / RFU RGS16 (11720943_a_at) / Fold change /veh RGS16 (11720943_a_at) / RFU RGS16 (11720944_at) / Fold change /veh RGS16 (11720944_at) / RFU, VPS4B / Fold change vs veh, VPS4B / RFU, CREB1 / Fold change vs veh, CREB1 / RFU, DNAJC13 / Fold change vs veh, DNAJC13 / RFU, GNAQ / Fold change vs veh, GNAQ / RFU, CDK5R1 / Fold change vs veh, CDK5R1 / RFU, ZRANB3 / Fold change vs veh, ZRANB3 / RFU, CUL4A / Fold change vs veh, CUL4A / RFU, CCNY / Fold change vs veh, CCNY / RFU, UFL1 / Fold change vs veh, UFL1 / RFU, COG3 / Fold change vs veh, COG3 / RFU, DIAPH2 / Fold change vs veh, DIAPH2 / RFU, SKA2 / Fold change vs veh, SKA2 / RFU, AFF3 / Fold change vs veh, AFF3 / RFU, LMF1 / Fold change vs veh, LMF1 / RFU, IPO11 / Fold change vs veh, IPO11 / RFU, DFFB / Fold change vs veh, DFFB / RFU, FOXP1 / Fold change vs veh, FOXP1 / RFU, CARD8 / Fold change vs veh, CARD8 / RFU, STRN3 / Fold change vs veh, STRN3 / RFU, ADK / Fold change vs veh, ADK / RFU, RASSF2 / Fold change vs veh, RASSF2 / RFU, WIPF1 / Fold change vs veh, WIPF1 / RFU, LARP1B / Fold change vs veh, LARP1B / RFU, RASA1 / Fold change vs veh, RASA1 / RFU, RB1 / Fold change vs veh, RB1 / RFU, PPFIA1 / Fold change vs veh, PPFIA1 / RFU, MAT2A / Fold change vs veh, MAT2A / RFU, CCT5 / Fold change vs veh, CCT5 / RFU, WDR92 / Fold change vs veh, WDR92 / RFU, CUX1 / Fold change vs veh, CUX1 / RFU, TTC7A / Fold change vs veh, TTC7A / RFU, TMEM135 / Fold change vs veh, TMEM135 / RFU, DEPTOR / Fold change vs veh, DEPTOR / RFU, CPM / Fold change vs veh, CPM / RFU, DNAJB6 / Fold change vs veh, DNAJB6 / RFU, CACNA2D3 / Fold change vs veh, CACNA2D3 / RFU, DTX4 / Fold change vs veh, DTX4 / RFU, TFCP2 / Fold change vs veh, TFCP2 / RFU, GMCL1 /// GMCL1P1 / Fold change vs veh, GMCL1 /// GMCL1P1 / RFU, AEBP2 / Fold change vs veh, AEBP2 / RFU, SNHG1 /// SNORD22 /// SNORD25 /// SNORD26 /// SNORD27 /// SNORD28 /// SNORD29 /// SNORD31 / Fold change vs veh, SNHG1 /// SNORD22 /// SNORD25 /// SNORD26 /// SNORD27 /// SNORD28 /// SNORD29 /// SNORD31 / Fold change (Aza/veh), C12orf56 (ProbeSet 11735607_a_at) / Fold change (ACY-1035/veh), C12orf56 (ProbeSet 11735607_a_at) / Fold change (Aza/veh), FGFR1OP (ProbeSet 11751329_s_at) / Fold change (ACY-1035/veh), FGFR1OP (ProbeSet 11751329_s_at) / Fold change (Aza/veh), VPS36 (ProbeSet 11739960_a_at) / Fold change (ACY-1035/veh), VPS36 (ProbeSet 11739960_a_at) / RFU SYPL1 (11715823_x_at) / Fold change /veh SYPL1 (11715823_x_at) / RFU IGFBP7 (11715501_s_at) / Fold change /veh IGFBP7 (11715501_s_at) / RFU REEP3 (11722064_at) / Fold change /veh REEP3 (11722064_at) / RFU IGLL1 (11728026_x_at) / Fold change /veh IGLL1 (11728026_x_at): dose or concentration left out as unconfirmed
Conditions: ProbeSet 11718569_a_at; LIST D

Q: With Nc1ncn([C@@H]2O[C@H](CO)[C@@H](O)[C@H]2O)c(=O)n1 [azacitidine] as the compound, how does the “RFU, WIPF1” value read?
A: 81.62 RFU

— paper PMC5218480 (PLoS ONE, 2017)
